Like-named read-outs stand apart in the source and are kept apart here.

The target of assay [1] is T1, hRUP25 (Homo sapiens, UniProt Q8TDS4). The assay can be described thus: Flash Plate adenylyl cyclase (cAMP) assay for agonists to hRUP25 in stably transfected CHO cells (clone 46). Format: cell-based. To be noted: read-out: RUP25 (EC50). The text has this: A modified Flash Plate™ Adenylyl Cyclase kit (New England Nuclear; Cat. No. SMP004A) is used for direct identification of candidate compounds as agonists to hRUP25 in accordance with the following protocol:
Stably transfected CHO cells (clone 46) were harvested from flasks via non-enzymatic means. The cells were washed in PBS and resuspended in the manufacturer's Assay Buffer. Live cells were counted using a hemacytometer and Trypan blue exclusion, and the cell concentration was adjusted to 2×10^6 cells/ml. cAMP standards and Detection Buffer (comprising 2 μCi of tracer [^125I]-cAMP (100 μl) to 11 ml Detection Buffer) were prepared and maintained in accordance with the manufacturer's instructions. Candidate compounds identified as per above (if frozen, thawed at room temperature) were added to their respective wells (preferably wells of a 96-well plate) at increasing concentrations (3 μl/well; 12 μM final assay concentration). To these wells, 100,000 cells in 50 μl of Assay Buffer were added and the mixture was then incubated for 30 minutes at room temperature, with gentle shaking. Following the incubation, 100 μl of Detection Buffer was added to each well, followed by incubation for 2-24 hours. Plates were counted in a Wallac MicroBeta™ plate reader using “Prot. #31” (as per manufacturer instructions).

Assay [2] deals with adipocyte primary cultures derived from human subcutaneous fat. To be noted: read-out: EC50, inhibition of isoproterenol induced lipolysis.
Description: (§1) Lipolysis assays were done following the isolation of adipocytes from-rat or human. The source of fat from rats was the epididymal fat and from humans was either subcutaneous or omental. Cells were isolated following collagenase digestion and floatation. An elevation of intracellular cAMP levels and concomitant activation of lipolysis via hormone sensitive lipase was accomplished using isoproterenol, forskolin, 3-isobutyl-1-methyl-xanthine (IBMX) or a combination thereof at concentrations and times determined empirically and depending on the source of tissue. […] Data was analyzed using Excel and PrismGraph.
For assay [3], the target named is T1, hRUP25. The assay can be described thus: cell-based.
The subject of assay [4] is rat epidimal fat derived adipocytes.
Description: as §1
Assay [5] concerns adipocyte primary cultures derived from human subcutaneous fat. The assay is described as follows: cells. To be noted: read-out: EC50, inhibition of isoproterenol induced lipolysis.
Description: as §1

T1 sequence (Q8TDS4 whole entry): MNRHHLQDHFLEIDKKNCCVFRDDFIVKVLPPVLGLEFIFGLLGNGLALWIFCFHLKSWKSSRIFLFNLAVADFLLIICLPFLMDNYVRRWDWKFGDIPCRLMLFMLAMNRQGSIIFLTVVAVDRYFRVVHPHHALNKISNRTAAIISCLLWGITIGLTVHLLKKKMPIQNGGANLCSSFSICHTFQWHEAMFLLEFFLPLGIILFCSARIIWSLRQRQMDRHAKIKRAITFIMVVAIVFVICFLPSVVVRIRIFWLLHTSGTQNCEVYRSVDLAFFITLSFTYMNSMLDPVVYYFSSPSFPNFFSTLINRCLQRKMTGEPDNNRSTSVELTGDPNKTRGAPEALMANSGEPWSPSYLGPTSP

Regarding `COCc1cc(C(=O)O)[nH]n1` [Compound 63, 5-Methoxymethyl-2H-pyrazole-3-carboxylic acid], the EC50 at hRUP25 [1] is 7.9 µM. Turning to `c1cncc(-c2nn[nH]n2)c1` [Compound P-3-T, 3-tetrazole-5-pyridine], the concentration for a half-maximal effect (EC50) in assay [2] was 0.218 µM. Consider `CSCc1cc(C(=O)O)[nH]n1` [Compound 48, 5-Methylsulfanylmethyl-2H-pyrazole-3-carboxylic acid], for which the EC50 at hRUP25 [1] was 4.3 µM. `CN1CCCC1c1cccnc1` (stereo not shown) [nicotine]: a half-maximal response on hRUP25 [3] (EC50) required 9.8 µM.

Take `O=C(O)c1cccnc1` [nicotinic acid, pyridine-3-carboxylic acid]: the “inhibition of isoproterenol induced lipolysis” value in assay [4] (10 μM) is on record as “inhibiting isoproterenol induced lipolysis”. Besides, the “dose-dependence of inhibition of isoproterenol induced lipolysis” value in assay [4] (increasing concentrations) was “dose-dependent inhibition”. Moreover, the concentration giving a half-maximal response (EC50) in assay [5] is 0.716 µM.

The term EC50 denotes the concentration needed to bring the measured effect to its halfway point.

These data come from patent US20070032537A1, “5-Substituted 2h-pyrazole-3-carboxylic acid derivatives as agonists for the acid receptor rup25 for the treatment of dyslipidemia and related diseases” (Arena Pharmaceuticals, Inc., priority 2003, published 2007).
